Drawing on patent publication US7928098B2, “Therapeutic and/or preventive agents for a sleep disorder” (Kyowa Hakko Kirin Co., Ltd., priority 2005, dated 2011), this text covers melting point for 37 compounds.

For orientation: melting point means the temperature, or range, at which the solid turns liquid. For the compound `CC(O)c1cc2cc(C(=O)Nc3nc(-c4ccco4)c(C(=O)c4ccccn4)s3)ccc2o1` (stereo not shown) [Compound 154, N-[4-(2-Furyl)-5-(pyridin-2-ylcarbonyl)thiazol-2-yl]-2-(1-hydroxyethyl)-1-benzofuran-5-carboxamide], the melting point is 246 to 249 °C. The same measure for `CC(C)(O)c1cc2cc(C(=O)Nc3nc(-c4ccco4)c(C(=O)c4ccccn4)s3)ccc2o1` [Compound 155, N-[4-(2-Furyl)-5-(pyridin-2-ylcarbonyl)thiazol-2-yl]-2-(1-hydroxy-1-methylethyl)-1-benzofuran-5-carboxamide]: 230 to 231 °C. As for `O=C(Nc1nc(-c2ccco2)c(C(=O)c2ccccn2)s1)c1cnc2occc2c1` [Compound 156, N-[4-(2-Furyl)-5-(pyridin-2-ylcarbonyl)thiazol-2-yl]-furo[2,3-b]pyridine-5-carboxamide], the figure is 234 to 235 °C. Regarding `CCOC(=O)Nc1nc(-c2ccco2)c(C(=O)c2ccccn2)s1` [Compound 158, Ethyl N-[4-(2-furyl)-5-(pyridin-2-ylcarbonyl)thiazol-2-yl]carbamate], the melting point lay in the range of 158 to 159 °C.

The compound `O=C(Nc1nc(-c2ccco2)c(C(=O)c2ccccn2)s1)OC1CCC1` [Compound 159, Cyclobutyl N-[4-(2-furyl)-5-(pyridin-2-ylcarbonyl)thiazol-2-yl]carbamate] showed a melting point of 152 to 153 °C. As to `O=C(Nc1nc(-c2ccco2)c(C(=O)c2ccccn2)s1)OC1CCCC1` [Compound 160, Cyclopentyl N-[4-(2-furyl)-5-(pyridin-2-ylcarbonyl)thiazol-2-yl]carbamate], the melting point fell in the range of 162 to 163 °C. The same measure for `O=C(Nc1nc(-c2ccco2)c(C(=O)c2ccccn2)s1)OC1CCOCC1` [Compound 161, 4-Tetrahydropyranyl N-[4-(2-furyl)-5-(pyridin-2-ylcarbonyl)thiazol-2-yl]carbamate]: 144 to 145 °C; for `CN1CCC(OC(=O)Nc2nc(-c3ccco3)c(C(=O)c3ccccn3)s2)CC1` [Compound 162, 1-Methylpiperidine-4-yl N-[4-(2-furyl)-5-(pyridin-2-ylcarbonyl)thiazol-2-yl]carbamate]: 222 to 225 °C; for `O=C(Nc1nc(-c2ccco2)c(C(=O)c2ccccn2)s1)OC(CF)CF` [Compound 163, 2-Fluoro-1-(fluoromethyl)ethyl N-[4-(2-furyl)-5-(pyridin-2-ylcarbonyl)thiazol-2-yl]carbamate]: 158 to 159 °C. In turn, `O=C(c1ccccn1)c1sc(NC(=O)N2CCOCC2)nc1-c1ccco1` [Compound 164, N-[4-(2-Furyl)-5-(pyridin-2-ylcarbonyl)thiazol-2-yl]morpholine-4-carboxamide] returned a melting point of 144 to 145 °C. The compound `O=C(c1ccccn1)c1sc(NC(=O)N2CCCCC2)nc1-c1ccco1` [Compound 165, N-[4-(2-Furyl)-5-(pyridin-2-ylcarbonyl)thiazol-2-yl]piperidine-1-carboxamide] yielded a melting point of 182 to 185 °C. As for `CC(C)NC(=O)Nc1nc(-c2ccco2)c(C(=O)c2ccccn2)s1` [Compound 166, N-[4-(2-Furyl)-5-(pyridin-2-ylcarbonyl)thiazol-2-yl]-N′-isopropylurea], the figure is 182 to 186 °C; as for `CC(C)(C)NC(=O)Nc1nc(-c2ccco2)c(C(=O)c2ccccn2)s1` [Compound 167, N-tert-Butyl-N′-[4-(2-furyl)-5-(pyridin-2-ylcarbonyl)thiazol-2-yl]urea], 123 to 124 °C. The same measure for `COCCNC(=O)Nc1nc(-c2ccco2)c(C(=O)c2ccccn2)s1` [Compound 168, N-[4-(2-Furyl)-5-(pyridin-2-ylcarbonyl)thiazol-2-yl]-N′-(2-methoxyethyl)urea]: 150 to 151 °C; for `COCCCNC(=O)Nc1nc(-c2ccco2)c(C(=O)c2ccccn2)s1` [Compound 169, N-[4-(2-Furyl)-5-(pyridin-2-ylcarbonyl)thiazol-2-yl]-N′-(3-methoxypropyl)urea]: 169 to 170 °C. The same measure for `O=C(CCl)Nc1nc(-c2ccco2)c(C(=O)c2ccccn2)s1` [Compound 170, 2-Chloro-N-[4-(2-furyl)-5-(pyridin-2-ylcarbonyl)thiazol-2-yl]acetamide]: 184 to 185 °C. Compound `O=C(CN1CCOCC1)Nc1nc(-c2ccco2)c(C(=O)c2ccccn2)s1` [Compound 172, N-[4-(2-Furyl)-5-(pyridin-2-ylcarbonyl)thiazol-2-yl]morpholinoacetamide] yielded a melting point of 170 to 171 °C.

`C[C@@H]1CN(CC(=O)Nc2nc(-c3ccco3)c(C(=O)c3ccccn3)s2)C[C@H](C)O1` [Compound 173, 2-(cis-2,6-Dimethylmorpholino)-N-[4-(2-furyl)-5-(pyridin-2-ylcarbonyl)thiazol-2-yl]acetamide]: the melting point lay in the range of 188 to 191 °C. As for `CC1CCN(CC(=O)Nc2nc(-c3ccco3)c(C(=O)c3ccccn3)s2)CC1` [Compound 174, N-[4-(2-Furyl)-5-(pyridin-2-ylcarbonyl)thiazol-2-yl]-2-(4-methylpiperidino)acetamide], the figure is 104 to 106 °C; as for `O=C(CN1CCC2(CC1)OCCO2)Nc1nc(-c2ccco2)c(C(=O)c2ccccn2)s1` [Compound 177, 2-(1,4-Dioxa-8-azaspiro[4.5]decan-8-yl)-N-[4-(2-furyl)-5-(pyridin-2-ylcarbonyl)thiazol-2-yl]acetamide], 188 to 204 °C; as for `O=C(CN1CCC(N2CCCCC2)CC1)Nc1nc(-c2ccco2)c(C(=O)c2ccccn2)s1` [Compound 178, N-[4-(2-Furyl)-5-(pyridin-2-ylcarbonyl)thiazol-2-yl]-2-(4-piperidinopiperidino)acetamide], 214 to 220 °C (dec.). `O=C(CN1CCC(N2CCOCC2)CC1)Nc1nc(-c2ccco2)c(C(=O)c2ccccn2)s1` [Compound 179, N-[4-(2-Furyl)-5-(pyridin-2-ylcarbonyl)thiazol-2-yl]-2-(4-morpholinopiperidino)acetamide] displayed a melting point of 149 to 150 °C. The same measure for `CCN1CCN(CC(=O)Nc2nc(-c3ccco3)c(C(=O)c3ccccn3)s2)CC1` [Compound 181, 2-(4-Ethylpiperazin-1-yl)-N-[4-(2-furyl)-5-(pyridin-2-ylcarbonyl)thiazol-2-yl]acetamide]: 142 to 144 °C; for `CC(C)N1CCN(CC(=O)Nc2nc(-c3ccco3)c(C(=O)c3ccccn3)s2)CC1` [Compound 182, N-[4-(2-Furyl)-5-(pyridin-2-ylcarbonyl)thiazol-2-yl]-2-(4-isopropylpiperazine-1-yl)acetamide]: 154 to 155 °C; for `CC(=O)N1CCN(CC(=O)Nc2nc(-c3ccco3)c(C(=O)c3ccccn3)s2)CC1` [Compound 183, 2-(4-Acetylpiperazin-1-yl)-N-[4-(2-furyl)-5-(pyridin-2-ylcarbonyl)thiazol-2-yl]acetamide]: 170 to 171 °C. The same measure for `O=C(CN1CCN(c2ccccc2)CC1)Nc1nc(-c2ccco2)c(C(=O)c2ccccn2)s1` [Compound 184, N-[4-(2-Furyl)-5-(pyridin-2-ylcarbonyl)thiazol-2-yl]-2-(4-phenylpiperazin-1-yl)acetamide]: 203 to 204 °C; for `O=C(CN1CCN(c2ccccn2)CC1)Nc1nc(-c2ccco2)c(C(=O)c2ccccn2)s1` [Compound 185, N-[4-(2-Furyl)-5-(pyridin-2-ylcarbonyl)thiazol-2-yl]-2-[4-(2-pyridyl)piperazin-1-yl]acetamide]: 215 to 218 °C; for `O=C(CN1CCN(c2ncccn2)CC1)Nc1nc(-c2ccco2)c(C(=O)c2ccccn2)s1` [Compound 186, N-[4-(2-Furyl)-5-(pyridin-2-ylcarbonyl)thiazol-2-yl]-2-[4-(2-pyrimidinyl)piperazin-1-yl]acetamide]: 199 to 200 °C. The same measure for `O=C(CN1CCN(C2CCOCC2)CC1)Nc1nc(-c2ccco2)c(C(=O)c2ccccn2)s1` [Compound 187, N-[4-(2-Furyl)-5-(pyridin-2-ylcarbonyl)thiazol-2-yl]-2-[4-(tetrahydropyran-4-yl)piperazin-1-yl]acetamide]: 172 to 188 °C. On to `O=C(CN1CCSC1)Nc1nc(-c2ccco2)c(C(=O)c2ccccn2)s1` [Compound 189, N-[4-(2-Furyl)-5-(pyridin-2-ylcarbonyl)thiazol-2-yl]-2-(1,3-thiazolidin-3-yl)acetamide], for which the melting point lay in the range of 153 to 155 °C. Regarding `O=C(CN1CCSCC1)Nc1nc(-c2ccco2)c(C(=O)c2ccccn2)s1` [Compound 190, N-[4-(2-Furyl)-5-(pyridin-2-ylcarbonyl)thiazol-2-yl]-2-thiomorpholinoacetamide], the melting point was in the range of 148 to 149 °C. As to `COc1cccc(C(=O)c2sc(NC(=O)c3ccncc3)nc2-c2ccco2)n1` [Compound 191, N-[4-(2-Furyl)-5-(6-methoxypyridin-2-ylcarbonyl)thiazol-2-yl]pyridine-4-carboxamide], the melting point was 247 to 250 °C. As for `Cc1cccc(C(=O)c2sc(NC(=O)c3ccncc3)nc2-c2ccco2)n1` [Compound 192, N-[4-(2-Furyl)-5-(6-methylpyridin-2-ylcarbonyl)thiazol-2-yl]pyridine-4-carboxamide], the figure is 238 to 241 °C; as for `Cc1ccc(C(=O)c2sc(NC(=O)c3ccncc3)nc2-c2ccco2)nc1` [Compound 202, N-[4-(2-Furyl)-5-(5-methylpyridin-2-ylcarbonyl)thiazol-2-yl]pyridine-4-carboxamide], 255 to 257 °C. Compound `Cc1ccnc(C(=O)c2sc(NC(=O)c3ccncc3)nc2-c2ccco2)c1` [Compound 203, N-[4-(2-Furyl)-5-(4-methylpyridin-2-ylcarbonyl)thiazol-2-yl]pyridine-4-carboxamide] yielded a melting point of 240 to 245 °C.

With `O=C(Nc1nc(-c2ccco2)c(C(=O)c2cccnc2)s1)c1ccncc1` [Compound 211, N-[4-(2-Furyl)-5-(pyridin-3-ylcarbonyl)thiazol-2-yl]pyridine-4-carboxamide], the melting point lay within 245 to 248 °C. The same measure for `O=C(c1cccnc1)c1sc(NC(=O)C2CC2)nc1-c1ccco1` [Compound 212, N-[4-(2-Furyl)-5-(pyridin-3-ylcarbonyl)thiazol-2-yl]cyclopropanecarboxamide]: 231 to 233 °C.
